Measured values as given in patent publication US8008510B2, “Metalloprotein inhibitors” (The Regents of the University of California, priority 2004, dated 2011).
pIC50: −log10 of the molar value.

Molecular target: MMP-3 (Homo sapiens, UniProt P08254)
Test: MMP-3 fluorescence-based inhibition assay

MMP-3, sequence (P08254 100-272 limits assumed): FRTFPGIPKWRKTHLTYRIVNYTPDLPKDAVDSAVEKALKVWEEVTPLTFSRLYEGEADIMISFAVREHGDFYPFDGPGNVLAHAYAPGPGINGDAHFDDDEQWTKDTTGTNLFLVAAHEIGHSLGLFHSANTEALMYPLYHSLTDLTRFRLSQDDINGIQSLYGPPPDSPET

Compound	pIC50	inhibition at 50 µM (read-out: inhibition of MMP-3) [%]
Cc1cc(=O)c(O)c(C(=O)Nc2ccc(-c3ccccc3)cc2)o1 [AM3]	4.05	
O=C(NCc1ccc(-c2ccccc2)cc1)c1cc(=O)c(O)co1 [CA1]		25
